Paper PMC7181131, “N-Pyrazinoyl Substituted Amino Acids as Potential Antimycobacterial Agents—the Synthesis and Biological Evaluation of Enantiomers” (Molecules, 2020)
Converted amounts (≈) assume the structure as drawn. Like-named read-outs stand apart in the source and are kept apart here.

Legend:
[1] = test system: Trichophyton interdigitale CCM 8377 (ATCC 9533); assay: Antifungal microdilution broth method, TI; assay type: cell-based; settings: 48 h, read-out: MIC TI
[2] = test system: Candida tropicalis CCM 8264 (ATCC 750); assay: Antifungal microdilution broth method, CT; assay type: cell-based; settings: 24 h, read-out: MIC CT
[3] = test system: Mtb H37Ra ITM-M006710 (ATCC 9431); assay: Microplate Alamar Blue Assay (MABA) microdilution, Mtb H37Ra; assay type: cell-based, Mycobacterium tuberculosis; settings: for MIC: Mycobacterium tuberculosis
some G- bacteria = assay: Antibacterial microdilution broth method, strains not given; assay type: cell-based; settings: read-out: MIC against some G- bacteria
[4] = test system: M. smegmatis DSM 43465 (ATCC 607); assay: Microplate Alamar Blue Assay (MABA) microdilution, M. smegmatis; assay type: cell-based, Mycobacterium smegmatis
[5] = test system: Mycobacterium aurum DSM 43999 (ATCC 23366); assay: Microplate Alamar Blue Assay (MABA) microdilution, M. aurum; assay type: cell-based
[6] = test system: Staphylococcus epidermidis CCM 4418 (ATCC 12228); assay: Antibacterial microdilution broth method, SE; assay type: cell-based; settings: 24 h, read-out: MIC SE
HepG2 cell line [7] = assay: HepG2 cytotoxicity, CellTiter 96 (MTS) assay; assay type: cell-based, human; settings: 24 h incubation, CellTiter 96
[8] = test system: Klebsiella pneumoniae CCM 4415 (ATCC 10031); assay: Antibacterial microdilution broth method, KP; settings: read after 24 h of incubation
[9] = test system: Candida krusei CCM 8271 (ATCC 6258); assay: Antifungal microdilution broth method, CK; assay type: cell-based; settings: Pichia kudriavzevii, 24 h, read-out: MIC CK
[10] = test system: Candida parapsilosis CCM 8260 (ATCC 22019); assay: Antifungal microdilution broth method, CP; assay type: cell-based; settings: Lodderomyces parapsilosis, 24 h, read-out: MIC CP
[11] = test system: Aspergillus flavus CCM 8363; assay: Antifungal microdilution broth method, AFla; assay type: cell-based; settings: CCM8363, read after 48 h (filamentous fungi), read-out: MIC AFla
[12] = test system: Candida albicans CCM 8320 (ATCC 24433); assay: Antifungal microdilution broth method, CA; assay type: cell-based; settings: 24 h, read-out: MIC CA
[13] = test system: Lichtheimia corymbifera CCM 8077; assay: Antifungal microdilution broth method, LC; assay type: cell-based; settings: CCM8077, 48 h, read-out: MIC LC
[14] = test system: Aspergillus fumigatus ATCC 204305; assay: Antifungal microdilution broth method, AF; assay type: cell-based; settings: ATCC204305, 48 h, read-out: MIC AF
HepG2 cell line [15] = test system: HepG2 cell line; set-up: method as in PMID 23357778; settings: converted to µM based on the literature value 1184.3 ± 120.2 µg/mL ref 62; cited from earlier work
[16] = pH 6.6, read-out: MIC Mtb H37Ra
[17] = pH 6, calculated from µg/mL, read-out: MIC Mtb H37Ra

CCOC(=O)[C@H](C)NC(=O)c1cnccn1 [PC-L-Ala-Et, ethyl (pyrazine-2-carbonyl)-L-alaninate]
MIC [1]: 500 µM (≈ 112 µg/mL) | MIC [2]: > 500 µM | times lower MIC of the ethyl ester compared to the free acid ([3]; Mtb H37Ra, pH 6, PC-L-Ala-Et vs PC-L-Ala): at least 64 times | MIC ([3]; pH 6): 3.91 µg/mL | MIC ([3]; pH 6, read-out: MIC Mtb H37Ra): 3.91 µg/mL | MIC [3, 16]: ≥ 500 µg/mL | MIC ([3]; pH 6, Table 4, read-out: Mtb pH 6 MIC): 18 µM | MIC [3, 17]: 17.5 µM | MIC (some G- bacteria): 125 µM (≈ 27.9 µg/mL) | MIC ([4]; Mycolicibacterium smegmatis, pH 6, read-out: MIC M. smegmatis µg/mL): ≥ 125 µg/mL | MIC ([4]; Mycolicibacterium smegmatis, pH 6.6, read-out: MIC M. smegmatis): ≥ 500 µg/mL | MIC ([5]; Mycolicibacterium aurum, pH 6, read-out: MIC M. aurum µg/mL): ≥ 125 µg/mL | MIC ([5]; Mycolicibacterium aurum, pH 6.6, read-out: MIC M. aurum): ≥ 500 µg/mL | MIC [6]: 250 µM (≈ 55.8 µg/mL) | HepG2 IC50 (HepG2 cell line [7]): above the tested range | IC50 (HepG2 cell line [7]; Homo sapiens, HepG2, read-out: HepG2 IC50): > 1 mM | MIC KP [8]: > 500 µM | MIC [9]: > 500 µM | MIC [10]: > 500 µM | MIC [11]: > 500 µM | MIC [12]: > 500 µM | MIC [13]: > 500 µM | MIC [14]: > 500 µM

NC(=O)c1cnccn1 [PZA, pyrazinamide, reference compound]
MIC ([3]; pH 6, read-out: Mtb pH 6 MIC): 31.8 µM | MIC ([3]; pH 6, read-out: MIC Mtb H37Ra): < 3.91 µg/mL | MIC [3, 16]: ≥ 500 µg/mL | MIC [3, 17]: < 31.8 µM | MIC ([4]; Mycolicibacterium smegmatis, pH 6; read-out: MIC M. smegmatis): ≥ 500 µg/mL | MIC ([4]; Mycolicibacterium smegmatis, pH 6.6; read-out: MIC M. smegmatis): ≥ 500 µg/mL | MIC ([5]; Mycolicibacterium aurum, pH 6; read-out: MIC M. aurum): 250 µg/mL (≈ 2030 µM) | MIC ([5]; Mycolicibacterium aurum, pH 6.6; read-out: MIC M. aurum): ≥ 500 µg/mL | IC50 (HepG2 cell line [15]): 9620 µM
